Measurements: US9102648B1, “Bioavailable diacylhydrazine ligands for modulating the expression of exogenous genes via an ecdysone receptor complex” (Intrexon Corporation, priority 2003, dated 2015)
Where two headings read alike, the source gives them in different places.

What was measured:
[1] = target: GAL4 DBD-CfEcR(DEF)/VP16AD-MmRXRE (Choristoneura fumiferana, UniProt O77240); test: 13B3 Assay (CHO stable cell line, luciferase reporter); settings: for fold induction at 3.3 µM: read-out: Fold Induction, 13B3 Assay, 3.3 uM; for fold induction at 33 µM: read-out: Fold Induction, 13B3 Assay, 33 uM; for 13B3 assay Rel Max FI: maximum fold induction at any concentration relative to that of GS-E ligand, CHO 13B3 cells; for Fold Induction, 13B3 Assay, 3.3 uM: 3.3 uM ligand; for Fold Induction, 13B3 Assay, 3.3 uM / Fold Induction, 13B3 Assay, 33 uM: RLU ligand treated / RLU DMSO treated cells; for Fold Induction, 13B3 Assay, 33 uM: 33 uM ligand
Outline: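 CHO 13B3 clone stably expressing GAL4 DBD–CfEcR(DEF) and VP16AD–MmRXR(DE) with GAL4 RE–luciferase reporter; cells plated 24 h at 37 °C, then treated with ligands (DMSO stocks diluted 300-fold), 8 concentrations 33–0.01 μM.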

[2] = target: GAL4 DBD (1-147)-CfEcR(DEF)/VP16AD-βRXREF-LmUSPEF (Choristoneura fumiferana, UniProt O77240); test: cell-based; settings: for 27-63 assay Rel Max FI: maximum fold induction at any concentration relative to that of GS-E ligand, CHO 27-63 cells; for fold induction at 3.3 µM: read-out: Fold Induction, 27-63 Assay, 3.3 uM; for fold induction at 33 µM: read-out: Fold Induction, 27-63 Assay, 33 uM; for Fold Induction, 27-63 Assay, 3.3 uM: 3.3 uM ligand; for Fold Induction, 27-63 Assay, 3.3 uM / Fold Induction, 27-63 Assay, 33 uM: RLU ligand treated / RLU DMSO treated cells; for Fold Induction, 27-63 Assay, 33 uM: 33 uM ligand
[3] = read-out: 13B3 EC50, CHO 13B3 stable cell line, luciferase reporter, 48 h, average of two wells
[4] = read-out: 27-63 assay EC50, CHO 27-63 stable cell line, luciferase reporter, average of two wells

| SMILES | EC50 [1] | fold induction at 3.3 µM [1] | fold induction at 33 µM [1] | EC50 [2] | 27-63 assay Rel Max FI [2] | fold induction at 3.3 µM [2] | fold induction at 33 µM [2] | 13B3 assay Rel Max FI [1] | Fold Induction, 13B3 Assay, 3.3 uM ([1]; average of two wells) | Fold Induction, 13B3 Assay, 33 uM ([1]; average of two wells) | EC50 [1, 3] | Fold Induction, 27-63 Assay, 3.3 uM ([2]; average of two wells) | Fold Induction, 27-63 Assay, 33 uM ([2]; average of two wells) | EC50 [2, 4] |
| --- | --- | --- | --- | --- | --- | --- | --- | --- | --- | --- | --- | --- | --- | --- |
| CC(C)(C)N(NC(=O)c1ccc(Cl)cc1)C(=O)c1ccccc1 [RG-100864] | 1160 nM | 318 | 187 | 17300 nM | 0.716 | 1 | 1180 | – | – | – | – | – | – | – |
| COc1cccc(C(=O)NN(C(=O)c2cc(Cl)c(F)c(Cl)c2)C(C)(C)C)c1C [RG-101382, N-(3-methoxy-2-methylbenzoyl)-N′-(3,5-dichloro-4-fluorobenzoyl)-N′-tert-butylhydrazine] | 588 nM | 13100 | 1010 | 306 nM | 1.188 | 2700 | 2570 | 0.915 | – | – | – | – | – | – |
| CCc1c(C(=O)NN(C(=O)c2cc(C)cc(Cl)c2)C(C)(C)C)ccc2c1OCCO2 [RG-101494, N-(5-ethyl-1,4-benzodioxan-6-carbonyl)-N′-(tert-butyl)-N′-(3-chloro-5-methylbenzoyl)hydrazine] | 148 nM | 755 | 613 | 36 nM | 0.916 | 717 | 294 | 0.822 | – | – | – | – | – | – |
| CCc1ccc(C(=O)NN(C(=O)c2cc(C)cc(C)c2)C(C)(C)C)c(F)c1 [RG-101523, 3,5-Dimethyl-benzoic acid N-tert-butyl-N′-(4-ethyl-2-fluoro-benzoyl)-hydrazide] | 2370 nM | 831 | 718 | 165 nM | 0.943 | 2430 | 2740 | 0.772 | – | – | – | – | – | – |
| CCc1ccc(C(=O)NN(C(=O)c2cc(C)cc(C)c2)C(C)(C)C)cc1 [RG-102125] | 479 nM | – | – | 190 nM | 0.721 | – | – | – | – | – | – | – | – | – |
| CCc1c(OC)cccc1C(=O)NN(C(=O)c1cc(C)cc(C)c1)C(C)(C)C [RG-102240, N-(3-methoxy-2-ethylbenzoyl)-N′-(3,5-dimethylbenzoyl)-N′-tert-butylhydrazine] | 500 nM | – | – | – | 1 | – | – | 1 | – | – | – | – | – | – |
| Cc1cc(C)cc(C(=O)N(NC(=O)c2ccc3c(c2C)OCCO3)C(C)(C)C)c1 [RG-102317, N-(5-methyl-1,4-benzodioxan-6-carbonyl)-N′-(tert-butyl)-N′-(3,5-dimethylbenzoyl)hydrazine] | 345 nM | 2420 | 814 | 102 nM | 0.948 | 2550 | 2500 | – | – | – | – | – | – | – |
| COc1cccc(C(=O)NN(C(=O)c2cc(C)cc(C)c2)C(C)(C)C)c1C [RG-102398] | 627 nM | 8120 | 795 | 325 nM | 1.017 | 2880 | 3180 | 0.838 | – | – | – | – | – | – |
| CCC(N(NC(=O)c1cccc(C)c1C)C(=O)c1cc(C)cc(C)c1)C(C)(C)C (stereo not shown) [RG-103309, 3,5-dimethyl-benzoic acid N′-(2,3-dimethyl-benzoyl)-N-(1-ethyl-2,2-dimethyl-propyl)-hydrazide] | 146 nM | 924 | 95 | 3020 nM | 0.975 | 2540 | 1200 | 1.486 | – | – | – | – | – | – |
| CCOC(=O)C(C)(C)N(NC(=O)c1cccc(OC)c1CC)C(=O)c1cc(C)cc(C)c1 [RG-115025, 2-[N-(3,5-dimethyl-benzoyl)-N′-(2-ethyl-3-methoxy-benzoyl)-hydrazino]-2-methyl-propionic acid ethyl ester] | 39300 nM | 8 | 1700 | 2450 nM | 1.523 | 2290 | 2240 | 0.186 | – | – | – | – | – | – |
| CCc1c(OC)cccc1C(=O)NN(C(=O)c1c(F)cccc1F)C(C)(C)C [RG-115033] | – | – | – | – | 0.868 | – | – | 0.643 | 386 | 12 | 1000 nM | 2 | 1256 | 18100 nM |
| CCc1c(OC)cccc1C(=O)NN(C(=O)c1cc(C)cc(C)c1)C(C)(C)C(=O)O [RG-115044, 2-[N-(3,5-Dimethyl-benzoyl)-N′-(2-ethyl-3-methoxy-benzoyl)-hydrazino]-2-methyl-propionic acid] | > 50000 nM | – | 1 | > 33000 nM | 0.00 | 1 | 2 | 0.87 | – | – | – | – | – | – |
| CCc1c(C(=O)NN(C(=O)c2ccccc2)C(C)(C)C)ccc2c1OCOC2 [RG-115046] | – | – | – | – | 0.739 | – | – | – | – | 1076 | – | 18 | 1069 | 5660 nM |
| COc1cc(C(=O)N(NC(=O)c2ccc3c(c2C)CCCO3)C(C)(C)C)cc(OC)c1C [RG-115055] | – | – | – | – | 1.341 | – | – | 0.894 | 1356 | 1350 | 303 nM | 4499 | 2725 | 318 nM |
| CCc1c(C(=O)NN(C(=O)c2ccccc2OC)C(C)(C)C)ccc2c1OCOC2 [RG-115065] | – | – | – | – | 0.746 | – | – | – | – | 880 | – | 859 | 1095 | 3000 nM |
| CCc1c(C(=O)NN(C(=O)c2ccc(Cl)cc2OC)C(C)(C)C)ccc2c1OCO2 [RG-115085] | – | – | – | – | 0.683 | – | – | – | – | 236 | – | 1143 | 1149 | 807 nM |
| COc1cc(C(=O)N(NC(=O)c2ccc3c(c2C)OCCO3)C(C)(C)C#N)cc(OC)c1C [RG-115092, N-(5-methyl-1,4-benzodioxan-6-carbonyl)-N′-(2-cyano-2-propyl)-N′-(3,5-dimethoxy-4-methylbenzoyl)hydrazine] | 184 nM | 2320 | 2410 | 213 nM | 1.092 | 2870 | 3110 | 1.176 | – | – | – | – | – | – |
| COc1ccccc1C(=O)N(NC(=O)c1ccc2c(c1C)CCCO2)C(C)(C)C [RG-115102] | – | – | – | – | 0.667 | – | – | 0.546 | 1425 | 109 | 930 nM | 1154 | 971 | 491 nM |
| Cc1c(C(=O)NN(C(=O)c2ccc(F)cc2)C(C)(C)C)ccc2c1CCCO2 [RG-115118] | – | – | – | – | 0.612 | – | – | 0.530 | 979 | 769 | 689 nM | 1063 | 914 | 394 nM |
| CCc1c(C(=O)NN(C(=O)c2cc(OC)c(C)c(OC)c2)C(C)(C)C)ccc2c1OCCO2 [RG-115130] | – | – | – | – | 1.375 | – | – | – | 987 | 511 | 512 nM | 4436 | 4096 | 93 nM |
| CCc1c(OC)cccc1C(=O)NN(C(=O)c1cc(C)cc(C)c1)C(C)(C)CO [RG-115143] | – | – | – | – | 1.112 | – | – | 0.651 | 1 | 2032 | > 50000 nM | 59 | 1736 | 7780 nM |
| CCc1c(OC)cccc1C(=O)NN(C(=O)c1cc(C)ccc1[N+](=O)[O-])C(C)(C)C [RG-115162] | – | – | – | – | 0.653 | – | – | 0.630 | 755 | 320 | 811 nM | 1814 | 1464 | 424 nM |
| Cc1c(C(=O)NN(C(=O)c2cc(F)cc(F)c2)C(C)(C)C)ccc2c1CCCO2 [RG-115207] | – | – | – | – | 0.704 | – | – | 0.707 | 7260 | 7959 | 618 nM | 1332 | 1279 | 593 nM |
| CCc1c(OC)cccc1C(=O)NN(C(=O)c1cc(C)cc(COC(C)=O)c1)C(C)(C)C [RG-115223] | – | – | – | – | 1.167 | – | – | 1.346 | 8 | 3437 | > 50000 nM | 273 | 1935 | 4680 nM |
